Measurements: patent US10363250B2, “Folate receptor binding conjugates of antifolates” (Purdue Research Foundation, priority 2008, dated 2019)
Where “and” joins values, the source holds several entries; their conditions need not be identical. Equal values may be shown once. Read-outs that look alike come from different tables or passages of the source.

What was measured:
human FRs (KB cells) = molecular target: T1, human FRs (KB cells) (Homo sapiens, UniProt P15328); test: Cell-Based Relative Affinity Assay (competition with 3H-FA on adherent KB cells); type: binding; conditions: for fold weaker affinity / fold lower RA: versus FA (or the Glu-bearing parent); for change of RA with incubation temperature: on ice versus 37° C.
T1 construct: endogenous in cells; host or cells: KB cells
T1 sequence (P15328 25-234): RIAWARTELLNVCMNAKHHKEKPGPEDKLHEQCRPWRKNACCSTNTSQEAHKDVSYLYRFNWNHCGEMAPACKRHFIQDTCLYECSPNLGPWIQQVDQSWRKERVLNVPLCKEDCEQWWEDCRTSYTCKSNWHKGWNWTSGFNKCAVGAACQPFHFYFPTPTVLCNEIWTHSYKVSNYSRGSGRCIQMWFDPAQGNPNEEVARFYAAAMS
Procedure: Cell culture. Cells were grown continuously as a monolayer using folate-free RPMI medium (FFRPMI) containing 10% heat-inactivated fetal calf serum (HIFCS) at 37° C. in a 5% CO2/95% air-humidified atmosphere with no antibiotics. The HIFCS contained its normal complement of endogenous folates which enabled the cells to sustain growth in this more physiologically-relevant medium (Leamon et al. Proc Natl Acad Sci, USA 1991; 88:5572-6). All cell experiments were performed using FFRPMI containing 10% HIFCS (FFRPMI/HIFCS) as the growth medium unless otherwise specified.
Cell-Based Relative Affinity Assay. The relative affinity of each test article was determined based on a method initially described by Westerhoff et al. Mol Pharm 1995; 48:459-71) with modifications. Briefly, FR-positive KB cells were seeded in 24-well Falcon plates and allowed to form adherent monolayers (>75% confluent) overnight in FFRPMI/HIFCS. […] Cells were incubated for 1 h on ice or in an incubator at 37° C. (as specified in the figure legends) and then rinsed 3 times with 0.5 mL of PBS. Five hundred microliters of 1% sodium dodecyisulfate in PBS were added to each well; after 5 min, cell lysates were collected, transferred to individual vials containing 5 mL of scintillation cocktail, and then counted for radioactivity. […] Relative affinities were defined as described above.
(§1) Relative Affinity Assay Format. The in vitro RA assay described within measures a ligand's ability to compete with FA for binding to FRs. To date, cultured cells have most commonly been used as the FR source. However, herein described is the evaluation of the use of a cell-free, immobilized FR plate system for this assay. This latter method utilized a microtiter plate to which commercially-available bovine milk soluble FBP had been chemically anchored. Similar to the cell-based method, ^3H-FA can compete directly with increasing concentrations of test article for binding to the attached FRs; however, unlike the cell-based method, bound radiolabel can be conveniently “stripped” from the plate by rinsing with a mildly acidic saline solution. […] Likewise, values lower than unity reflect weaker affinity, and values higher than unity reflect stronger affinity.

Folate Receptor = Folate Receptor (Homo sapiens, UniProt P15328); conditions: Table 1 footnote (a): Westerhoff et al. 1995; cited from earlier work
Sequence of Folate Receptor (P15328 25-234): as above

[1] = system: human KB tumor cells xenografts; test: Activity against subcutaneous KB tumors; type: in vivo, mice; conditions: 2 μmol/kg TIW/2 weeks
Procedure: Effect On Transplanted KB Tumors. Mice are injected, subcutaneously with human KB tumor cells xenografts.

KB cells = test: Activity against KB cells (72 h continuous assay); type: cell-based; conditions: Homo sapiens
[2] = molecular target: bovine milk soluble folate binding protein (sFBP) (Bos taurus, UniProt P02702); conditions: plate-anchored bovine milk sFBP, cold incubation, absence of serum
Sequence of bovine milk soluble folate binding protein (sFBP) (P02702 20-234): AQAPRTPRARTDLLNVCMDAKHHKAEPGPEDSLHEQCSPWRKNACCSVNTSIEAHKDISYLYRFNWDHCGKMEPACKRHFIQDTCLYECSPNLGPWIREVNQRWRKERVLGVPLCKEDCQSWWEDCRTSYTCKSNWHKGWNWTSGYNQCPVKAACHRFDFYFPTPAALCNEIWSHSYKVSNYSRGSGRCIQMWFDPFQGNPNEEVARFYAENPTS
Source text: as §1

[3] = Remaining in solution during the RA assay period; type: physicochemical; conditions: even at 30 μM, throughout the assay period
Source text: It is further appreciated that among the folate analogs, it was interesting to observe the importance of having a charged moiety in close proximity to the Pte group. For example, the RA value increased 90 to>300-fold when a Glu residue was attached to Pte, and N^10-propargyl 5,8-dideazapteroic acid, respectively. […] But, two exceptions were found. […] Therefore, without being hound by theory, it is believed that the lower RA value observed for EC216 may result from steric interference caused by the closer proximity of the drug (DAVLBH) to the Pte unit.

[4] = Table 1, adherent KB cells, 10% serum, 37° C., FA = 1
[5] = KB cells, 10% serum (10% serum/FDRPMI)
[6] = Table 2, adherent KB cells, 10% serum, 37° C., FA = 1

## Nc1nc2c(c(=O)[nH]1)N(C=O)C(CNc1ccc(C(=O)N[C@@H](CCC(=O)O)C(=O)O)cc1)CN2 (stereo partly drawn) [5-formyl-tetrahydrofolate, 5-formyltetrahydrofolate]
Human FRs (KB cells); KB cells, 10% serum, 37° C.
  fold weaker affinity / fold lower RA: 125
Human FRs (KB cells); Table 1, 37° C., 10% serum
  Fold Weaker Affinity from FA: 125
Human FRs (KB cells); Table 1, KB cells, FA = 1
  Relative Binding Affinity (0° C.): 0.15
Human FRs (KB cells); [4]
  Relative Binding Affinity (37° C.): 0.008
Folate Receptor
  Relative Binding Affinity (0° C.), value in parentheses: 0.1

## CN1c2c(nc(N)[nH]c2=O)NCC1CNc1ccc(C(=O)N[C@@H](CCC(=O)O)C(=O)O)cc1 (stereo partly drawn) [5-methyl-tetrahydrofolate, 5-methyltetrahydrofolate]
Human FRs (KB cells); KB cells, 10% serum, 37° C.
  fold weaker affinity / fold lower RA: 14
Human FRs (KB cells); Table 1, 37° C., 10% serum
  Fold Weaker Affinity from FA: 14
Human FRs (KB cells); [4]
  Relative Binding Affinity (37° C.): 0.070
Folate Receptor
  Relative Binding Affinity (0° C.), value in parentheses: (0.35)^(a)

## C#CCN(Cc1ccc2nc(N)[nH]c(=O)c2c1)c1ccc(C(=O)N[C@@H](CCC(=O)O)C(=O)O)cc1 [CB3717, N10-propargyl-5,8-dideazafolic acid]
[1]
  complete responses: 0/5
KB cells; FIG. 9 Panel A
  IC50: 5 nM
KB cells; FIG. 9 Panel B
  IC50: 19 nM
Human FRs (KB cells); [5]
  RA (relative affinity): 0.148
Human FRs (KB cells); KB cells, 10% serum, 37° C.
  RA / competitive binding in words: equal to that of FA
Human FRs (KB cells); Table 1, 37° C., 10% serum
  Fold Weaker Affinity from FA: 1.0
Human FRs (KB cells); [4]
  Relative Binding Affinity (37° C.): 1.000

## C#CCN(Cc1ccc2nc(N)[nH]c(=O)c2c1)c1ccc(C(=O)O)cc1 [Des-glutamyl CB3717, N^10-propargyl 5,8-dideazapteroic acid]
Human FRs (KB cells); KB cells, 10% serum, 37° C.
  fold weaker affinity / fold lower RA: > 300
Human FRs (KB cells); Table 1, 37° C., 10% serum
  Fold Weaker Affinity from FA: 500
Human FRs (KB cells); [4]
  Relative Binding Affinity (37° C.): 0.002

## Nc1nc2ncc(CNc3ccc(C(=O)N[C@@H](CCC(=O)NCCNC(=S)Nc4ccc(-c5c6ccc(=O)cc-6oc6cc(O)ccc56)c(C(=O)O)c4)C(=O)O)cc3)nc2c(=O)[nH]1 [EC17, Pte-γGlu-eda-FITC]
Human FRs (KB cells); Table 2, 37° C., 10% serum
  Fold Weaker Affinity form FA: 1.2
Human FRs (KB cells); Table 2, KB cells, FA = 1
  Relative Binding Affinity (0° C.): 0.29
Human FRs (KB cells); [6]
  Relative Binding Affinity (37° C.): 0.45
Human FRs (KB cells); no serum
  change of RA with incubation temperature: increased with temperature

## Nc1nc2ncc(CNc3ccc(C(=O)N[C@@H](CCC(=O)NC[C@H](N)C(=O)N[C@@H](CC(=O)O)C(=O)N[C@@H](CS)C(=O)O)C(=O)O)cc3)nc2c(=O)[nH]1 [EC20, Pte-γGlūβDpr-Asp-Cys]
Human FRs (KB cells); Table 2, 37° C., 10% serum
  Fold Weaker Affinity form FA: 1.1
Human FRs (KB cells); [6]
  Relative Binding Affinity (37° C.): 0.92

## CO[C@@]12[C@H](COC(N)=O)C3=C(C(=O)C(C)=C(NCCSSC[C@H](NC(=O)CC[C@@H](NC(=O)c4ccc(NCc5cnc6nc(N)[nH]c(=O)c6n5)cc4)C(=O)O)C(=O)O)C3=O)N1C[C@@H]1N[C@@H]12 [EC72, Pte-γGlu-Cys-L-MMC]
Human FRs (KB cells); Table 2, 37° C., 10% serum
  Fold Weaker Affinity form FA: 1.5
Human FRs (KB cells); Table 2, KB cells, FA = 1
  Relative Binding Affinity (0° C.): 0.53
Human FRs (KB cells); [6]
  Relative Binding Affinity (37° C.): 0.59
Human FRs (KB cells); no serum
  change of RA with incubation temperature: increased with temperature

## CC[C@]1(O)CC2CN(CCc3c([nH]c4ccccc34)[C@@](C(=O)OC)(c3cc4c(cc3OC)N(C)[C@H]3[C@@](O)(C(=O)N/N=C(\C)c5ccc(N6C(=O)CC(SC[C@H](NC(=O)[C@H](CC(=O)O)NC(=O)[C@H](CC(=O)O)NC(=O)[C@H](CCCNC(=N)N)NC(=O)[C@H](CC(=O)O)NC(=O)CC[C@H](NC(=O)c7ccc(NCc8cnc9nc(N)[nH]c(=O)c9n8)cc7)C(=O)O)C(=O)O)C6=O)cc5)[C@H](O)[C@]5(CC)C=CCN6CC[C@]43[C@@H]65)C2)C1 (stereo partly drawn) [EC140, EC119-Hyd-DAVLBH]
Human FRs (KB cells); [5]
  RA (relative affinity): 0.50
Human FRs (KB cells); KB cells, 37° C., no serum
  RA (relative affinity): 0.12
Human FRs (KB cells); KB cells, serum versus no serum
  fold change of RA with serum versus absence of serum: 4 and 4.1
Human FRs (KB cells); Table 2, 37° C., 10% serum
  Fold Weaker Affinity form FA: 2.0
Human FRs (KB cells); [6]
  Relative Binding Affinity (37° C.): 0.50

## CC[C@]1(O)CC2CN(CCc3c([nH]c4ccccc34)[C@@](C(=O)OC)(c3cc4c(cc3OC)N(C)[C@H]3[C@@](O)(C(=O)NNC(=O)OCCSSC[C@H](NC(=O)[C@H](CC(=O)O)NC(=O)[C@H](CC(=O)O)NC(=O)[C@H](CCCNC(=N)N)NC(=O)[C@H](CC(=O)O)NC(=O)CC[C@H](NC(=O)c5ccc(NCc6cnc7nc(N)[nH]c(=O)c7n6)cc5)C(=O)O)C(=O)O)[C@H](O)[C@]5(CC)C=CCN6CC[C@]43[C@@H]65)C2)C1 (stereo partly drawn) [EC145, EC119-L-DAVLBH]
[1]
  complete responses: 2/5
Human FRs (KB cells)
  Fold Weaker Affinity form FA: 2.1
  Relative Binding Affinity (37° C.): 0.47
  fold change of RA with serum versus absence of serum: 2.4
[2]
  RA (relative affinity): 0.12

## CC[C@]1(O)CC2CN(CCc3c([nH]c4ccccc34)[C@@](C(=O)OC)(c3cc4c(cc3OC)N(C)[C@H]3[C@@](O)(C(=O)NNC(=O)OCCSSC[C@H](NC(=O)c5ccc(NCc6cnc7nc(N)[nH]c(=O)c7n6)cc5)C(=O)O)[C@H](O)[C@]5(CC)C=CCN6CC[C@]43[C@@H]65)C2)C1 (stereo partly drawn) [EC216, Pte-Cys-L-DAVLBH]
Human FRs (KB cells); KB cells, 10% serum, 37° C., shortened spacer
  fold decrease in RA versus EC145: 10
Human FRs (KB cells); Table 2, 37° C., 10% serum
  Fold Weaker Affinity form FA: 22
Human FRs (KB cells); [6]
  Relative Binding Affinity (37° C.): 0.046
[3]
  remaining in solution: remain in solution

## C#CCN(Cc1ccc2nc(N)[nH]c(=O)c2c1)c1ccc(C(=O)O)cc1 [EC283]
Human FRs (KB cells); [5]
  RA (relative affinity): 0.002

## Nc1nc2ncc(CNc3ccc(C(=O)N[C@@H](CCC(=O)O)C(=O)O)cc3)nc2c(=O)[nH]1 [Folic Acid]
Human FRs (KB cells); 0 to 100% sera
  variation of calculated RA values among serum conditions: 13%

## CN(Cc1cnc2nc(N)[nH]c(=N)c2n1)c1ccc(C(=O)N[C@@H](CCC(=O)O)C(=O)O)cc1 [Methotrexate]
Human FRs (KB cells); KB cells, 10% serum, 37° C.
  fold weaker affinity / fold lower RA: 50
Human FRs (KB cells); Table 1, 37° C., 10% serum
  Fold Weaker Affinity from FA: 50
Human FRs (KB cells); Table 1, KB cells, FA = 1
  Relative Binding Affinity (0° C.): 0.000
Human FRs (KB cells); [4]
  Relative Binding Affinity (37° C.): 0.018
Folate Receptor
  Relative Binding Affinity (0° C.), value in parentheses: 0.008

## Nc1nc2[nH]cc(CCc3ccc(C(=O)N[C@@H](CCC(=O)O)C(=O)O)cc3)c2c(=O)[nH]1 [Pemetrexed, N-(4-(2-(2-amino-4,7-dihydro-4-oxo-3H-pyrrolo[2,3-D]pyrimidin-5-yl)ethyl)benzoyl]-L-glutamic acid]
Human FRs (KB cells); Table 1, 37° C., 10% serum
  Fold Weaker Affinity from FA: 500
Human FRs (KB cells); Table 1, KB cells, FA = 1
  Relative Binding Affinity (0° C.): 0.26
Human FRs (KB cells); [4]
  Relative Binding Affinity (37° C.): 0.002
Folate Receptor
  Relative Binding Affinity (0° C.), value in parentheses: 1.5

## Nc1nc2ncc(C(=O)O)nc2c(=O)[nH]1 [Pterin-6-carboxylate]
Human FRs (KB cells); KB cells, 10% serum, 37° C.
  RA / competitive binding in words: failed to block
Human FRs (KB cells); [4]
  Relative Binding Affinity (37° C.): 0.000

## Nc1nc2ncc(CNc3ccc(C(=O)O)cc3)nc2c(=O)[nH]1 [Pteroic Acid]
Human FRs (KB cells); KB cells on ice / cold incubation, absence of serum
  RA (relative affinity): 0.42
Human FRs (KB cells); KB cells on ice, no serum
  fold weaker affinity than FA: 2.4
Human FRs (KB cells); KB cells, 10% serum, 37° C., listed as Pte
  fold weaker affinity / fold lower RA: 91 and 90
Human FRs (KB cells); KB cells, 37° C., no serum
  RA (relative affinity): 0.01
  fold weaker affinity than FA: 100
Human FRs (KB cells); Table 1, 37° C., 10% serum
  Fold Weaker Affinity from FA: 91
Human FRs (KB cells); Table 1, KB cells, FA = 1
  Relative Binding Affinity (0° C.): 0.42
Human FRs (KB cells); [4]
  Relative Binding Affinity (37° C.): 0.011

## Cc1cc2nc3c(=O)[nH]c(=O)nc-3n(C[C@H](O)[C@H](O)[C@H](O)CO)c2cc1C [riboflavin]
Human FRs (KB cells); 300-fold molar excess, KB cells
  competition with binding of 3H-FA: not able to compete
Human FRs (KB cells); KB cells, 10% serum, 37° C.
  RA / competitive binding in words: very low
